Where “and” joins values, the source holds several entries; their conditions need not be identical. Equal values may be shown once. Read-outs that look alike come from different tables or passages of the source.
Legend:
[1] = test system: CD3-positive T-cell; experiment: Annexin V apoptosis of normal T-lymphocytes in PBMCs; format: cell-based, human; conditions: 72 hours
Description: (§1) PBMCs were cultured at 10^6 cells/ml in a 12-well tissue culture plate. Cells were treated for 72 hours with vehicle control or drug for 72 hours, then harvested as above for staining. PBMCs were resuspended at 2×10^5 cells/tube in 100 μl buffer (HBSS, 0.5% bovine serum albumin, 0.1% sodium azide) and incubated for 30 min with CD3-FITC or CD19-FITC antibodies according to the manufacturer's protocol (BD Biosciences). Cells were then incubated with PE-annexin V and 7-AAD (BD Biosciences) in annexin V binding buffer (BD Biosciences) for 15 minutes prior to analysis of apoptosis on the Guava EasyCyte™ Plus system.

[2] = test system: CD19-positive B-cell; experiment: Annexin V apoptosis of normal B-lymphocytes in PBMCs; format: cell-based, human; conditions: 72 hours
Description: as §1

[3] = test system: normal PBMCs; experiment: [3H]-thymidine proliferation assay, mitogen-stimulated normal PBMCs; format: cell-based, human; conditions: for IC50: Homo sapiens, PBMC, 96 h, read-out: IC50 for suppression of mitogen-induced proliferation
Description: CLL cells (2×10^5 cells/well) were cultured in quadruplicate in a volume of 200 μl in 96-well tissue culture plates for 96 hours with 1 μM CpG-oligodeoxynucleotides (ODN) DSP30 (Reference 14) (Midland Certified Reagent Company, Midland, Tex.) and 100 units/ml IL-2 (R&D Systems) in the presence or absence of drug. As controls, cells were treated with media without DSP30/IL-2. Cells were incubated with 1 μCi/well [methyl-^3H]-thymidine (specific activity 6.7 Ci/mmol, PerkinElmer, Waltham, Mass., USA) for 14-18 hours prior to harvesting onto glass-fiber filters using a semi-automated cell harvester. [^3H]-thymidine incorporation was measured as counts per minute (cpm) using a Tri-Carb 2100 timed-resolved liquid scintillation counter (PerkinElmer). The same protocol was utilized for proliferation assays with normal PBMCs, with the exception that growth was stimulated by treatment with 10 μg/ml Phytohemagglutinin-P (PHA, Sigma), 5 μg/ml concanavalin A (ConA, Sigma), 2 μg/ml pokeweed mitogen (PWM, Sigma), 25 ng/ml muromonab-CD3 (α-CD3, Ortho Pharmaceuticals, Raritan, N.J.), or 50 ng/ml phorbol myristate acetate (PMA, Sigma) plus 1 μg/ml ionomycin (iono, Sigma) for 96 hours. Proliferation is reported as percent of control (drug-treated cpm/control-treated cpm×100%).

[4] = biological target: T1, human hERG (Homo sapiens, UniProt Q12809); experiment: hERG [3H] Astemizole radioligand binding; conditions: 1.5 nM [3H] Astemizole, HEK-293 cells, 60 min, 25° C.; read-out: IC50 for inhibition of radioligand binding to the cardiac potassium channel
T1 construct: host or cells: HEK-293
T1 sequence (Q12809 whole entry): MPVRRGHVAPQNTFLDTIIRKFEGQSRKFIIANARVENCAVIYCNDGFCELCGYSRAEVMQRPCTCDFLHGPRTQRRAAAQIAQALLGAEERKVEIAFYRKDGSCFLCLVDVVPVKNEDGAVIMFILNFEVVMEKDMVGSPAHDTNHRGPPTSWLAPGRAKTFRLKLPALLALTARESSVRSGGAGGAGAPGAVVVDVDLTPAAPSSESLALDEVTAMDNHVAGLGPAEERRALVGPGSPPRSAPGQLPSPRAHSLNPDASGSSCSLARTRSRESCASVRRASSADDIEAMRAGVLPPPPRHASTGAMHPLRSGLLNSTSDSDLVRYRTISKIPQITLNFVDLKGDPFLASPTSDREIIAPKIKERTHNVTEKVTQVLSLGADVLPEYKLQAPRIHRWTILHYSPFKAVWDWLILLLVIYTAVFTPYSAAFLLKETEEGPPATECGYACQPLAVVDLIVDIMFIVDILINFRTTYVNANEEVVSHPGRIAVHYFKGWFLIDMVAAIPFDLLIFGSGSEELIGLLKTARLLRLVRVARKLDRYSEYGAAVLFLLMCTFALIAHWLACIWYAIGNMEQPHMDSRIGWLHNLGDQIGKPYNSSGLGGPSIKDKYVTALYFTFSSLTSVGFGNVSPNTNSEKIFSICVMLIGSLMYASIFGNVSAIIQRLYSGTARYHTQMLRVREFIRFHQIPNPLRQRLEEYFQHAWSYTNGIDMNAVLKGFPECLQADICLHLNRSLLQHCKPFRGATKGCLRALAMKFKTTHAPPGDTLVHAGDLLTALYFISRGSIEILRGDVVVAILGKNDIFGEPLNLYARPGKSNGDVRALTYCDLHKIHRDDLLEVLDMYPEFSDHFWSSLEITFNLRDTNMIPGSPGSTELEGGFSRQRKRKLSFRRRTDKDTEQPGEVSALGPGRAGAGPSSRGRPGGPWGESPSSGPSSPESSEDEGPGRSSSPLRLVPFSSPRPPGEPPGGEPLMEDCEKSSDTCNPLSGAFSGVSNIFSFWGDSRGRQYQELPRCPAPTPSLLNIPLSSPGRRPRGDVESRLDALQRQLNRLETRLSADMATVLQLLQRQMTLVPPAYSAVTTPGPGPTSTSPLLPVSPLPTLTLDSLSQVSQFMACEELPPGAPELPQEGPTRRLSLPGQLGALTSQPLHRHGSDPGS
Description: This assay was performed by MDS Pharma Services. Human recombinant HEK-293 cells over-expressing the human hERG receptor were incubated for 60 min at 25° C. with 1.5 nM [^3H] Astemizole in the presence or absence of the indicated concentrations of LMP-420. Nonspecific binding (<10%) was determined by binding of radioligand in 10 μM Astemizole. All samples were determined in duplicate.

[5] = test system: CLL cells; experiment: Annexin V / 7-AAD apoptosis assay on CLL cells; format: cell-based, human; conditions: for median percent drug-specific apoptosis: 72-hour; for median drug-specific apoptosis: n=43
Description: Cells were cultured in either of two different media: Hybridoma SFM with 10% FBS or RPMI 1640 medium (Sigma) supplemented with 5% heat-inactivated human AB serum (Sigma), 50 units/ml penicillin, 50 μg/ml streptomycin, 2 mM L-glutamine, 25 mM HEPES (N2-hydroxyethylpiperazine-N′-2-ethanesulfonic acid), 100 μM MEM non-essential amino acids, and 1 mM sodium pyruvate (GIBCO). CLL cell sensitivity to LMP-420 was not affected by culture media, as determined by direct comparison of the apoptotic effects observed in both media for seven samples. After drug activity in the presence of human AB serum was confirmed, further studies were performed in Hybridoma SFM with 10% FBS.
CLL cells were cultured at 2×10^6 cells/ml in a volume of 100 μl/well in a U-bottom 96-well tissue culture plate (BD Biosciences, San Jose, Calif.) with either vehicle control or with drug. After 24, 48, or 72 hours of incubation, cells were analyzed for apoptosis by three different methods. For the annexin-based assay, 100 μl of Guava Nexin Reagent (Millipore, Billerica, Mass.) was added for 20 min. Cells were analyzed for annexin V-PE and 7-AAD staining with flow cytometric analysis by the Guava EasyCyte™ Plus system (Millipore). To facilitate comparison of samples with different levels of spontaneous apoptosis, drug-specific apoptosis is reported. Drug-specific apoptosis excludes background spontaneous apoptosis and was calculated as follows: 100%×(drug-induced apoptosis−spontaneous apoptosis)/(100−spontaneous apoptosis) (Reference 13).

[6] = Reference 44; cited from earlier work
[7] = test system: normal PBMCs; experiment: MTS cytotoxicity assay on PBMCs from normal donors; format: cell-based, human; conditions: for EC50: Homo sapiens, PBMC
Description: For toxicity studies involving normal blood cells, normal volunteers were enrolled in an IRB-approved protocol for blood collection. PBMCs were isolated from heparin-anticoagulated blood by ficoll-Hypaque density gradient centrifugation.
2.5×10^5 CLL cells were incubated in triplicate or quadruplicate in a 96-well tissue culture plate (Costar, Corning, N.Y.) with serial dilutions of LMP-420, fludarabine, and/or recombinant TNF-alpha (R&D Systems, Minneapolis, Minn.) in Hybridoma serum free media (SFM) (GIBCO/Invitrogen, Carlsbad, Calif.) containing 10% heat-inactivated fetal bovine serum (FBS) (Sigma) at 37° C. with 5% CO2. After 72 hours, 20 μl CellTiter 96® AQueous One Solution Cell Proliferation Assay (Promega, Madison, Wis.) MTS (3-(4,5 dimethylthiazol-2-yl)-5-(3-carboxymethoxyphenyl-2-(4-sulfophenyl)-2H-tetrazolium) reagent was added to each well and the absorbance was read at 490 nm on a Thermomax microplate reader (Molecular Devices, Sunnyvale, Calif.). We calculated fractional cytotoxicity as performed previously (Reference 12), comparing absorbance at 490 nm from treated cells to control cells incubated with media alone.
The concentration effective at killing 50% of CLL cells compared to media alone (ED50) was calculated when 50% fractional cytotoxicity occurred within the range of serial dilutions tested (Reference 12). If the ED50 fell below or above this range, it was set to either the lowest or the highest concentration tested, respectively, for the purposes of statistical analyses and graphical representation.

With Nc1nc(Cl)c2ncn(CCCCCB(O)O)c2n1 [LMP-420, 2-amino-6-chloro-9-[5(dihydroxyboryl)-pentyl] purine] the “average percent drug-specific apoptosis, T-cells” value ([1]; 1 μM, n=3) was −1%, the “apoptosis in normal T-lymphocytes” value ([1]; concentrations up to 90 μM) was “did not induce significant apoptosis” and the “average percent drug-specific apoptosis, B-cells” value ([2]; 1 μM, n=3) was 11%. The “apoptosis in normal B-lymphocytes” value ([2]; concentrations up to 90 μM) was “did not induce significant apoptosis”, the “PBMC proliferation IC50 relative to ED50 in CLL cells” value [3] was 100- to 250 fold and the IC50 ([3]; Con A, 96 hours) was 71 µM. The IC50 ([3]; PHA, 96 hours) was over 90 µM, the IC50 ([3]; PMA/Iono, 96 hours) was over 90 µM and the IC50 ([3]; PWM, 96 hours) was over 90 µM. For the same compound, the IC50 ([3]; α-CD3, 96 hours) was 33 µM, the IC50 [4] was over 100 µM and the “median percent drug-specific apoptosis” value ([5]; 5,000 nM, mutated IgVH subgroup (n=30)) was 34%. The “median percent drug-specific apoptosis” value ([5]; 5,000 nM, unmutated IgVH subgroup (n=10)) was 59%, the median drug-specific apoptosis ([5]; 5,000 nM, 24 hours) was 15% and the median drug-specific apoptosis ([5]; 5,000 nM, 48 hours) was 28%. The median drug-specific apoptosis ([5]; 5,000 nM, 72 hours) was 32%, the “apoptosis, range” value ([5]; 5,000 nM, patients with 11q22 deletion or complex cytogenetics (n=3)) was 13 to 58% and 13-58% and the EC50 ([5]; Homo sapiens, CLL cell, 72 hours, five-patient sample set, read-out: mean dose required for 50% drug-specific apoptosis by annexin V staining) was 5 µM. The “staining indicative of primary necrosis (7-AAD-positive, annexin-V-negative)” value ([5]; all samples, 72 hours) was under 2%, the “samples in which apoptosis was induced (49 of 50)” value ([5]; highest dose (5,000 nM), 72 hours) was 98% and the oral bioavailability [6] was “orally bioavailable”. The tolerability in vivo [6] was “well-tolerated in vivo”, the “potentiation of fludarabine cytotoxicity on normal PBMCs” value ([7]; 62 or 250 nM LMP-420 with fludarabine, 72 hours, n=3) was “did not potentiate” and the EC50 ([7]; 72 hours, MTS, not reached at up to 512 μM, read-out: median ED50 on normal PBMCs) was over 512 µM. The EC50 ([7]; mean, PBMCs from healthy blood donors (n = 3-6), read-out: ED50 (μM), PBMC) was over 512 µM.
